Test results published in paper PMC2912373, “Low-Density Lipoprotein Receptor-Related Protein 1 (LRP1) Mediates Neuronal Aβ42 Uptake and Lysosomal Trafficking” (PLoS ONE, 2010).

System: N2a-mLRP4-Tless cells
Assay: FAM-Aβ42 uptake in LRP1 endocytosis-deficient cells, FACS
Type: cell-based, mouse
Conditions: 500 nM, 48 h, pronase-treated and untreated cells
Description: To determine whether the endocytic function of LRP1 is required for Aβ42 internalization and accumulation, we first analyzed the effect of clathrin knockdown on the uptake of FAM-Aβ42 in N2a-mLRP4 cells. We decreased the expression of clathrin heavy chain by lentiviral-mediated delivery of small hairpin interfering RNA (shRNA) in N2a-mLRP4 cells and analyzed cell surface levels of mLRP4 by FACS. Lentiviral-mediated knockdown of clathrin heavy chain substantially decreases the protein levels of clathrin heavy chain and evokes a twofold-increase in the levels of cell surface mLRP4 in N2a cells (Fig. 4A), consistent with an impairment of clathrin-mediated endocytosis of this LRP1 minireceptor. […] As a control for specificity, we analyzed the uptake of a FAM-Aβ42 peptide that contained the same amino acid composition but in a scrambled sequence. […] To further confirm this, we specifically targeted the endocytic function of mLRP4 and analyzed the internalization of FAM-Aβ42 in LRP1 endocytosis-deficient cells. […]
Figure 4 LRP1 endocytosis is required for Aβ42 uptake and accumulation in N2a cells. […] The levels of cell surface and total pools of mLRP4 were determined by flow cytometric analyses with anti-HA antibody in non-permeabilized and saponin-treated cells, respectively. The surface-to-total ratio were calculated and plotted as fold-change to control-infected cells. […]

FAM-Aβ42: FAM-Aβ42 peptide (23526) from Anaspec; amyloid-β 42 with carboxyfluorescein at the N-terminal region
FAM-Aβ42 uptake in N2a-mLRP4-Tless compared to N2a-pcDNA3 cells: similar
